System: myasthenogenic antibody mAB 198
Experiment: Peptide microarray mimotope screen, binding of mAB 198 to linear and cyclic peptides (fluorescence readout)
Parameters: species or system rat
Conditions: binding of mAB 198, relative fluorescent signal after normalization against background
From the text: A custom peptide array of 30000 peptides was synthesized, with peptides of 7-19 amino acids in size; the peptides were based on substitution analyses of 176 AChR-MIR peptides with exchanges of each amino acid positions by each of the 20 common amino acids. Peptides were synthesized directly on a microarray, and screened with monoclonal antibody mAB 198 in order to obtain mimotopes with a binding strength which was improved over the human AChR alpha chain MIR-containing sequence […] (Tzartos et al, 1991; Luo et al, 2009) and over a previously published mimotope sequence ([…]), that was derived from Torpedo AchR with the help of antibody mAB 132A (Trinh et al, 2014). In particular, the wild type AChR-MIR sequence is known to structurally mimic to a certain extent the epitope recognized by myasthenogenic, unwanted and disease-causing antibodies from patients. The mimotope peptide library was designed by permutation of each single amino acid position of these two sequences with all natural amino acids in order to provide a maximally diversified collection of peptide variants. All peptides were synthesized in doublets as linear and as cyclic peptides. The aim was to obtain peptides (mimotopes) that mimic the natural epitope of myasthenogenic antibodies.
For the mimotope screen, the antibody mAB 198 (Absolute Antibody Ltd, UK) was used. This is a prototype antibody that was generated in rats using human AChR (Tzartos et al, 1983; Asher et al, 1993). […] Therefore, mAB198 was used as a surrogate probe to screen for new mimotopes that are capable of mimicking the corresponding AChR-MIR epitope or portions of the epitope.
As a readout, binding of mAB 198 to the 30000 linear and cyclic peptides was measured by fluorescence readout, and peptides were ranked according to their relative fluorescent signal after normalization against the background.
The top-ranked 100 linear and cyclic mimotopes are listed in Table 1 and Table 2 above, respectively.

## 84 (RGNPADY) [compound 84]
Linear mimotopes
  relative signal [%]: 6.9%

## 85 (VDCNLKFNP) [compound 85]
Linear mimotopes
  relative signal [%]: 6.8%

## 86 (DVRLRWNPSDY) [compound 86]
Linear mimotopes
  relative signal [%]: 6.8%

## 87 (RIRWNPADY) [compound 87]
Linear mimotopes
  relative signal [%]: 6.8%

## 88 (HRLRWNPAD) [compound 88]
Linear mimotopes
  relative signal [%]: 6.7%

## 89 (SLRVNPADY) [compound 89]
Linear mimotopes
  relative signal [%]: 6.7%

## 90 (CNLKYNP) [compound 90]
Linear mimotopes
  relative signal [%]: 6.7%

## 91 (HSLRWNPAD) [compound 91]
Linear mimotopes
  relative signal [%]: 6.6%

## 92 (NPADYGN) [compound 92]
Linear mimotopes
  relative signal [%]: 6.5%

## 93 (LRWNPADYPGI) [compound 93]
Linear mimotopes
  relative signal [%]: 6.5%

## 94 (RLRYNPADY) [compound 94]
Linear mimotopes
  relative signal [%]: 6.5%

## 95 (SLRFNPADY) [compound 95]
Linear mimotopes
  relative signal [%]: 6.5%

## 96 (QWVDCNLKFNP) [compound 96]
Linear mimotopes
  relative signal [%]: 6.4%

## 97 (LRPNPADYG) [compound 97]
Linear mimotopes
  relative signal [%]: 6.1%

## 98 (VDCNLKYNP) [compound 98]
Linear mimotopes
  relative signal [%]: 6.1%

## 99 (ALRWNPADY) [compound 99]
Linear mimotopes
  relative signal [%]: 6.0%

## 100 (NPADYGV) [compound 100]
Linear mimotopes
  relative signal [%]: 6.0%

## 101 (VRLRWNPADYP) [compound 101]
Cyclic mimotopes
  relative signal [%]: 100.0%

## 102 (RLRVNPADY) [compound 102]
Cyclic mimotopes
  relative signal [%]: 61.3%

## 103 (LRVNPADYG) [compound 103]
Cyclic mimotopes
  relative signal [%]: 45.1%

## 104 (WIDVRLRGNPA) [compound 104]
Cyclic mimotopes
  relative signal [%]: 43.2%

## 105 (RLNPADY) [compound 105]
Cyclic mimotopes
  relative signal [%]: 42.3%

## 106 (RFNPADY) [compound 106]
Cyclic mimotopes
  relative signal [%]: 37.5%

## 107 (RLRLNPADY) [compound 107]
Cyclic mimotopes
  relative signal [%]: 37.3%

## 108 (RLRGNPADY) [compound 108]
Cyclic mimotopes
  relative signal [%]: 32.7%

## 109 (DVRLRINPADY) [compound 109]
Cyclic mimotopes
  relative signal [%]: 31.4%

## 110 (DVRLRVNPADY) [compound 110]
Cyclic mimotopes
  relative signal [%]: 30.2%

## 111 (RINPADY) [compound 111]
Cyclic mimotopes
  relative signal [%]: 28.9%

## 112 (LRLNPADYG) [compound 112]
Cyclic mimotopes
  relative signal [%]: 28.6%

## 113 (LRRNPAD) [compound 113]
Cyclic mimotopes
  relative signal [%]: 28.2%

## 114 (SLRINPADY) [compound 114]
Cyclic mimotopes
  relative signal [%]: 28.0%

## 115 (DVRLRFNPADY) [compound 115]
Cyclic mimotopes
  relative signal [%]: 27.7%

## 116 (NPADYRG) [compound 116]
Cyclic mimotopes
  relative signal [%]: 27.4%

## 117 (SLRVNPADY) [compound 117]
Cyclic mimotopes
  relative signal [%]: 26.5%

## 118 (RLRINPADY) [compound 118]
Cyclic mimotopes
  relative signal [%]: 25.5%

## 119 (GGSLRINPADY) [compound 119]
Cyclic mimotopes
  relative signal [%]: 25.4%

## 120 (DVRLRGNPADY) [compound 120]
Cyclic mimotopes
  relative signal [%]: 25.0%

## 121 (WNPADYR) [compound 121]
Cyclic mimotopes
  relative signal [%]: 24.9%

## 122 (RLRYNPADY) [compound 122]
Cyclic mimotopes
  relative signal [%]: 24.5%

## 123 (RGNPADY) [compound 123]
Cyclic mimotopes
  relative signal [%]: 23.8%

## 124 (RRNPADY) [compound 124]
Cyclic mimotopes
  relative signal [%]: 23.5%

## 125 (LRRNPADYG) [compound 125]
Cyclic mimotopes
  relative signal [%]: 23.4%

## 126 (RINPADYGG) [compound 126]
Cyclic mimotopes
  relative signal [%]: 23.1%

## 127 (LRINPADYG) [compound 127]
Cyclic mimotopes
  relative signal [%]: 22.8%

## 128 (GGSLRVNPADY) [compound 128]
Cyclic mimotopes
  relative signal [%]: 22.5%

## 129 (RGNPADYGG) [compound 129]
Cyclic mimotopes
  relative signal [%]: 22.2%

## 130 (SLRLNPADY) [compound 130]
Cyclic mimotopes
  relative signal [%]: 21.8%

## 131 (DVRLRPNPADY) [compound 131]
Cyclic mimotopes
  relative signal [%]: 21.3%

## 132 (RLRFNPADY) [compound 132]
Cyclic mimotopes
  relative signal [%]: 21.3%

## 133 (WNPADYP) [compound 133]
Cyclic mimotopes
  relative signal [%]: 21.1%

## 134 (RYNPADY) [compound 134]
Cyclic mimotopes
  relative signal [%]: 20.2%

## 135 (GGSLRGNPADY) [compound 135]
Cyclic mimotopes
  relative signal [%]: 19.6%

## 136 (NPADYGR) [compound 136]
Cyclic mimotopes
  relative signal [%]: 19.5%

## 137 (RVNPADY) [compound 137]
Cyclic mimotopes
  relative signal [%]: 18.7%

## 138 (GSLRWNPADYR) [compound 138]
Cyclic mimotopes
  relative signal [%]: 16.2%

## 139 (NPADYGH) [compound 139]
Cyclic mimotopes
  relative signal [%]: 15.8%

## 140 (RPNPADY) [compound 140]
Cyclic mimotopes
  relative signal [%]: 15.6%

## 141 (SLRGNPADY) [compound 141]
Cyclic mimotopes
  relative signal [%]: 15.4%

## 142 (VRLRRNPAD) [compound 142]
Cyclic mimotopes
  relative signal [%]: 14.7%

## 143 (RTNPADY) [compound 143]
Cyclic mimotopes
  relative signal [%]: 14.6%

## 144 (GGSLRFNPADY) [compound 144]
Cyclic mimotopes
  relative signal [%]: 14.5%

## 145 (RLYWNPADY) [compound 145]
Cyclic mimotopes
  relative signal [%]: 13.7%

## 146 (GNPADYGGI) [compound 146]
Cyclic mimotopes
  relative signal [%]: 13.7%

## 147 (SLRFNPADY) [compound 147]
Cyclic mimotopes
  relative signal [%]: 13.6%

## 148 (VRLRVNPADYG) [compound 148]
Cyclic mimotopes
  relative signal [%]: 13.4%

## 149 (LRWNPADYP) [compound 149]
Cyclic mimotopes
  relative signal [%]: 13.1%

## 150 (NPADYGD) [compound 150]
Cyclic mimotopes
  relative signal [%]: 12.6%

## 151 (VNPADYG) [compound 151]
Cyclic mimotopes
  relative signal [%]: 12.5%

## 152 (GGGSLRRNPAD) [compound 152]
Cyclic mimotopes
  relative signal [%]: 12.5%

## 153 (RPRWNPADY) [compound 153]
Cyclic mimotopes
  relative signal [%]: 12.4%

## 154 (GSLRWNPADYP) [compound 154]
Cyclic mimotopes
  relative signal [%]: 12.4%

## 155 (SLRYNPADY) [compound 155]
Cyclic mimotopes
  relative signal [%]: 12.2%

## 156 (RANPADY) [compound 156]
Cyclic mimotopes
  relative signal [%]: 12.2%

## 157 (GSLRINPADYG) [compound 157]
Cyclic mimotopes
  relative signal [%]: 12.1%

## 158 (RPNPADYGG) [compound 158]
Cyclic mimotopes
  relative signal [%]: 11.9%

## 159 (NPADYGY) [compound 159]
Cyclic mimotopes
  relative signal [%]: 11.8%

## 160 (ALRWNPADY) [compound 160]
Cyclic mimotopes
  relative signal [%]: 11.5%

## 161 (GGSLRYNPADY) [compound 161]
Cyclic mimotopes
  relative signal [%]: 11.5%

## 162 (RIRWNPADY) [compound 162]
Cyclic mimotopes
  relative signal [%]: 11.5%

## 163 (RWNPADR) [compound 163]
Cyclic mimotopes
  relative signal [%]: 11.0%

## 164 (RLHWNPADY) [compound 164]
Cyclic mimotopes
  relative signal [%]: 10.8%

## 165 (QLRWNPADY) [compound 165]
Cyclic mimotopes
  relative signal [%]: 10.7%

## 166 (RLRQNPADY) [compound 166]
Cyclic mimotopes
  relative signal [%]: 10.6%

## 167 (DVRLRWNPSDY) [compound 167]
Cyclic mimotopes
  relative signal [%]: 10.5%

## 168 (VRLRWNPADYS) [compound 168]
Cyclic mimotopes
  relative signal [%]: 10.5%

## 169 (DVRLRYNPADY) [compound 169]
Cyclic mimotopes
  relative signal [%]: 10.5%

## 170 (GSLRFNPADYG) [compound 170]
Cyclic mimotopes
  relative signal [%]: 10.4%

## 171 (GGSLRWNPADR) [compound 171]
Cyclic mimotopes
  relative signal [%]: 10.3%

## 172 (LRWNPADYR) [compound 172]
Cyclic mimotopes
  relative signal [%]: 10.3%

## 173 (LRWNPADYGGF) [compound 173]
Cyclic mimotopes
  relative signal [%]: 10.3%

## 174 (GSLRWNPADYD) [compound 174]
Cyclic mimotopes
  relative signal [%]: 10.2%

## 175 (RLRWNPADYHG) [compound 175]
Cyclic mimotopes
  relative signal [%]: 10.1%

## 176 (RLRWNPADYGP) [compound 176]
Cyclic mimotopes
  relative signal [%]: 10.0%

## 177 (GSLRWNPADYN) [compound 177]
Cyclic mimotopes
  relative signal [%]: 10.0%

## 178 (VRLRINPADYG) [compound 178]
Cyclic mimotopes
  relative signal [%]: 10.0%

## 179 (LRPNPADYG) [compound 179]
Cyclic mimotopes
  relative signal [%]: 10.0%

## 180 (TLRWNPADY) [compound 180]
Cyclic mimotopes
  relative signal [%]: 9.9%
